Reference: patent publication US8394825B2, “Compound” (Sterix Limited, priority 2007, dated 2013)

tested on: DU145 cells; test: Antiproliferative assay in DU145 cells, WST-1 cell proliferation assay, 96 hours (GI50); assay type: cell-based; conditions: 96 hours post-treatment, 50% growth inhibition, read-out: DU-145 GI50
Experimental: Antiproliferative assays. DU145 cells were seeded into 96 well microtiter plates (5000 cells/well) and treated with […] of compounds or with vehicle control. At 96 hours post-treatment, live cell counts were determined by WST-1 cell proliferation assay (Roche, Penzberg, Germany), as per manufacturer's instructions. Viability results were expressed as a percentage of mean control values resulting in the calculation of the 50% growth inhibition (GI50). All experiments were performed in triplicate.

SMILES | GI50 [µM]
COc1cc2c(cc1OS(N)(=O)=O)CCN(S(=O)(=O)c1ccccc1OC)C2=O [compound 204, 7-Methoxy-2-(2-methoxy-benzenesulfonyl)-6-O-sulfamoyl-3,4-dihydro-2H-isoquinolin-1-one] | > 100
COc1ccc(S(=O)(=O)N2CCc3cc(OS(N)(=O)=O)c(OC)cc3C2=O)cc1 [compound 206, 7-Methoxy-2-(4-methoxy-benzenesulfonyl)-6-O-sulfamoyl-3,4-dihydro-2H-isoquinolin-1-one] | > 100

same assay, conditions: 96 hours post-treatment, triplicate, read-out: DU-145 GI50

SMILES | GI50 [µM]
COc1cc2c(cc1OS(N)(=O)=O)CCN(Cc1cccc(OC(C)C)c1)C2 [compound 104, 2-(3-Isopropoxybenzyl)-7-methoxy-6-O-sulfamoyl-1,2,3,4-tetrahydroisoquinoline] | < 10
COc1cc2c(cc1OS(N)(=O)=O)CCN(C(=O)c1cccc(C#N)c1)C2=O [compound 153, 2-(3-Cyanobenzoyl)-7-methoxy-6-O-sulfamoyl-3,4-dihydro-2H-isoquinoline-1-one] | 10 to 50
COc1ccc(S(=O)(=O)N2CCc3cc(OS(N)(=O)=O)c(OC)cc3C2)cc1 [compound 195, 7-Methoxy-2-(4-methoxy-benzenesulfonyl)-6-O-sulfamoyl-1,2,3,4-tetrahydroisoquinoline] | > 100
COc1cc2c(cc1OS(N)(=O)=O)CCN(Cc1cc(OC)c(OC)c(OC)c1)C2=O [compound 168, 7-methoxy-6-O-sulfamoyl-2-(3,4,5-trimethoxybenzyl)-3,4-dihydroisoquinolin-1 (2H)-one] | > 100
COc1cc2c(cc1OS(N)(=O)=O)CCN(Cc1cccc(NC(C)=O)c1)C2 [compound 85, 2-(3-Acetamidobenzyl)-7-methoxy-6-O-sulfamoyl-1,2,3,4-tetrahydroisoquinoline] | > 100
COc1cc2c(cc1OS(N)(=O)=O)CCN(Cc1cccc(Oc3ccccc3)c1)C2 [compound 78, 7-Methoxy-2-(3-phenoxybenzyl)-6-O-sulfamoyl-1,2,3,4-tetrahydroisoquinoline] | 10 to 50
COc1cc(CN2CCc3cc(OS(N)(=O)=O)c(OC)cc3C2=O)cc(OC)c1 [compound 167, 2-(3,5-Dimethoxybenzyl)-7-methoxy-6-O-sulfamoyl-3,4-dihydro-2H-isoquinolin-1-one] | > 100
COc1ccccc1CN1CCc2cc(OS(N)(=O)=O)c(OC)cc2C1 [compound 75, 7-Methoxy-2-(2-methoxybenzyl)-6-O-sulfamoyl-1,2,3,4-tetrahydroisoquinoline] | < 10
COc1cc2c(cc1OS(N)(=O)=O)CCN(Cc1ccccc1)C2 [compound 74, 2-Benzyl-7-methoxy-6-O-sulfamoyl-1,2,3,4-tetrahydroisoquinoline] | 50 to 100
COc1cc2c(cc1OS(N)(=O)=O)CCN(S(=O)(=O)c1cccc(C)c1)C2 [compound 191, 7-Methoxy-6-O-sulfamoyl-2-(toluene-3-sulfonyl)-1,2,3,4-tetrahydroisoquinoline] | 10 to 50
COc1cc2c(cc1OS(N)(=O)=O)CCN(Cc1cccc(OS(N)(=O)=O)c1)C2 [compound 79, 7-Methoxy-2-(3-(O-sulfamoyl)benzyl)-6-O-sulfamoyl-1,2,3,4-tetrahydroisoquinoline] | 10 to 50
COc1cc2c(cc1OS(N)(=O)=O)CCN(Cc1ccc(OC)c(OC)c1OC)C2 [compound 93, 7-Methoxy-2-(2,3,4-trimethoxybenzyl)-6-O-sulfamoyl-1,2,3,4-tetrahydroisoquinoline] | 10 to 50
COc1cc2c(cc1OS(N)(=O)=O)CCN(C(=O)c1cc(OC)c(OC)c(OC)c1)C2 [compound 127, 7-methoxy-6-O-sulfamoyl-2-(3,4,5-trimethoxybenzoyl)-1,2,3,4-tetrahydroisoquinoline] | < 10
COc1cc2c(cc1OS(N)(=O)=O)CCN(Cc1cccc(O)c1)C2 [compound 97, 2-(3-Hydroxybenzyl)-7-methoxy-6-O-sulfamoyl-1,2,3,4-tetrahydroisoquinoline] | 50 to 100
COc1cc2c(cc1OS(N)(=O)=O)CCN(S(=O)(=O)c1cccc(C(F)(F)F)c1)C2 [compound 189, 7-Methoxy-6-O-sulfamoyl-2-(3-trifluoromethyl-benzenesulfonyl)-1,2,3,4-tetrahydroisoquinoline] | 10 to 50
COc1cc2c(cc1OS(N)(=O)=O)CCN(Cc1cccc(Cl)c1)C2 [compound 101, 2-(3-Chlorobenzyl)-7-methoxy-6-O-sulfamoyl-1,2,3,4-tetrahydroisoquinoline] | < 10
COc1cccc(C(=O)N2CCc3cc(OS(N)(=O)=O)c(OC)cc3C2)c1 [compound 123, 7-Methoxy-2-(3-methoxybenzoyl)-6-O-sulfamoyl-1,2,3,4-tetrahydroisoquinoline] | < 10

same assay, conditions: Homo sapiens, DU-145, 96 hours post-treatment, triplicate

SMILES | GI50 [µM]
COc1cc2c(cc1O)CCN(Cc1cccc(NC(C)=O)c1)C2 [compound 50, 6-Hydroxy-7-methoxy-2-(3-acetamidobenzyl)-1,2,3,4-tetrahydroisoquinoline] | > 100
COc1cc(OC)cc(C(=O)N2CCc3cc(O)c(OC)cc3C2)c1 [compound 119, 2-(3,5-Dimethoxybenzoyl)-6-hydroxy-7-methoxy-1,2,3,4-tetrahydroisoquinoline] | < 10
COc1ccc(C(=O)N2CCc3cc(OCc4ccccc4)ccc3C2)cc1OC [compound 109, 6-Benzyloxy-2-(3,4-Dimethoxybenzoyl)-1,2,3,4-tetrahydroisoquinoline] | 10 to 50
COc1cc2c(cc1O[Si](C(C)C)(C(C)C)C(C)C)CCN(S(=O)(=O)c1cccc(C#N)c1)C2 [compound 174, 2-(3-Cyano-benzenesulfonyl)-6-triisopropylsilyloxy-7-methoxy-1,2,3,4-tetrahydroisoquinoline] | > 100

tested on: not given; test: not given; conditions: not given

SMILES | melting point [°C]
CCOC1CN(Cc2ccccc2OC)Cc2cc(OC)c(O)cc21 (centres unmarked) [F34, 4-Ethoxy-7-methoxy-2-(2-methoxybenzyl)-1,2,3,4-tetrahydroisoquinolin-6-ol] | 101 to 102
COc1cc2c(cc1OS(N)(=O)=O)CCN(Cc1cccc(NS(C)(=O)=O)c1)C2 [compound 88, 7-Methoxy-2-(3-(methylsulfonamido)benzyl)-1,2,3,4-tetrahydroisoquinolin-6-yl sulfamate] | 151 to 152
COc1cc(CCN2CCc3cc(O)ccc3C2)cc(OC)c1OC [B29, 2-(3,4,5-Trimethoxyphenethyl)-1,2,3,4-tetrahydroisoquinolin-6-ol] | 180 to 186
COc1cc2c(cc1O)CCCC(=O)N2Cc1cc(OC)c(OC)c(OC)c1 [compound 319, 7-Hydroxy-8-methoxy-1-(3,4,5-trimethoxybenzyl)-4,5-dihydro-1H-benzo[b]azepin-2(3H)-one] | 170 to 171
COc1cc2c(cc1OCc1ccccc1)CCN(Cc1cccc(NC(C)=O)c1)C2 [compound 35, 2-(3-Acetamidobenzyl)-6-(benzyloxy)-7-methoxy-1,2,3,4-tetrahydroisoquinoline] | 63 to 66
COc1cccc(CN2CCCc3cc(O)c(OC)cc3C2)c1 [compound 307, 7-Hydroxy-8-methoxy-2-(3-methoxybenzyl)-2,3,4,5-tetrahydro-1H-benzo[e]azepine] | 114 to 115
COC(=O)c1ccccc1S(=O)(=O)N1CCc2cc(O)c(OC)cc2C1 [186A, 7-Methoxy-2-(2-(methoxycarbonyl)benzenesulfonyl)-6-hydroxy-1,2,3,4-tetrahydroisoquinoline] | 134 to 138
COc1ccc(OC)c(CN2CCc3cc(O)ccc3C2)c1 [B19, 2-(2,5-Dimethoxybenzyl)-1,2,3,4-tetrahydroisoquinolin-6-ol] | 178 to 192
COc1ccc(CN2CCc3cc(O)ccc3C2)cc1OC [B23, 2-(3,4-Dimethoxybenzyl)-1,2,3,4-tetrahydroisoquinolin-6-ol] | 119 to 122
COc1cc2c(cc1O)CCCN(Cc1ccccc1OC)C2 [compound 306, 7-Hydroxy-8-methoxy-2-(2-methoxybenzyl)-2,3,4,5-tetrahydro-1H-benzo[c]azepine] | 136 to 137
COc1ccc(CN2CCc3cc(O)ccc3C2)c(OC)c1 [B25, 2-(2,4-Dimethoxybenzyl)-1,2,3,4-tetrahydroisoquinolin-6-ol] | 149 to 152
COc1cccc(C(=O)N2CCc3cc(O)ccc3C2)c1OC [B9, 2-(2,3-Dimethoxybenzoyl)-1,2,3,4-tetrahydroisoquinolin-6-ol] | 167 to 172
COc1ccc(CN2CCCc3cc(OCc4ccccc4)c(OC)cc3C2)cc1 [compound 304, 7-Benzyloxy-8-methoxy-2-(4-methoxybenzyl)-2,3,4,5-tetrahydro-1H-benzo[c]azepine] | 87 to 88
COc1cc2c(cc1OCc1ccccc1)CCCN(Cc1cc(OC)c(OC)c(OC)c1)C2 [compound 305, 7-Benzyloxy-8-methoxy-2-(3,4,5-trimethoxybenzyl)-2,3,4,5-tetrahydro-1H-benzo[c]azepine] | 44 to 46
COc1cc2c(cc1OCc1ccccc1)CCC(=O)N2Cc1cc(OC)c(OC)c(OC)c1 [compound 289, 6-(Benzyloxy)-7-methoxy-1-(3,4,5-trimethoxybenzyl)-3,4-dihydro-1H-quinolin-2-one] | 129 to 130
COc1cc2c(cc1OCc1ccccc1)CCN(C(=O)c1cc(OC)c(OC)c(OC)c1)C2 [compound 111, 6-Benzyloxy-7-methoxy-2-(3,4,5-trimethoxybenzoyl)-1,2,3,4-tetrahydroisoquinoline] | 63 to 64
COc1cccc(CN2CCc3cc(O)ccc3C2)c1 [compound 37, 6-Hydroxy-2-(3-methoxybenzyl)-1,2,3,4-tetrahydroisoquinoline] | 223 to 224
CCOc1cc(CN2CCc3cc(O)ccc3C2)cc(OCC)c1OCC [B27, 2-(3,4,5-triethoxybenzyl)-1,2,3,4-tetrahydroisoquinolin-6-ol] | 140 to 142
